ChEMBL document CHEMBL1201862, “PubChem BioAssay data set” (2004)
“And” between values parts separate entries of the source, which are not always exact repeats. Identical values can stand only once. The source made the active and inactive calls. For most assays here, no stated cut-off is given here; in the data, actives have a measured EC50 and inactives only a lower limit.

What was measured:
[1] = molecular target: T1, Heat shock factor protein 1 (Mus musculus, UniProt P38532); experiment: enhancement of HSF1-driven luciferase signal – cell-based, NIH3T3, luminescence, dose retest, confirmation (AID 435004); assay type: functional;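 further: stress induced by proteasome inhibitor MG132 added 30 min after compound; luciferase reporter driven by HSF1 response element in NIH3T3 cells; actives raise luminescence as potentiators of the MG132 stress response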
T1 sequence (P38532 whole entry): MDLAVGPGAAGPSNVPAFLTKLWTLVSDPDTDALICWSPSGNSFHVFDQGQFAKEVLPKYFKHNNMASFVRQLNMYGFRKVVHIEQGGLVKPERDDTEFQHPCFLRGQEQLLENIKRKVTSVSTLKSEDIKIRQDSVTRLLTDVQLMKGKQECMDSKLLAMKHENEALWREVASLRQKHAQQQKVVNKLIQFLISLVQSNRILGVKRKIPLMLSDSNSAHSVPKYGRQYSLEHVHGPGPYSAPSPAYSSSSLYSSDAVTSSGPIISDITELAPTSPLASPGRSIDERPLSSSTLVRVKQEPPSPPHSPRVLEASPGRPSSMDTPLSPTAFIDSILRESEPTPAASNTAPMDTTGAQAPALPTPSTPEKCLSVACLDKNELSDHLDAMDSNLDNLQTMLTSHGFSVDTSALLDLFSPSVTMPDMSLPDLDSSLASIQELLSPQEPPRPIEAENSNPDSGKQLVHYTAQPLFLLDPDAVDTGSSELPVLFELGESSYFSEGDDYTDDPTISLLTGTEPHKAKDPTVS

H4 = experiment: Luminescence Cell-Based Dose Response HTS to Identify Activators of 5'UTR Stem-Loop Driven Prion Protein mRNA Translation in H4 Neuroglioblastoma Cells. [Related pubchem assays: 1829 (Project Summary), 1814 (Primary HTS)]; assay type: functional; settings: Homo sapiens
[2] = Luminescence Cell-Based Dose Response HTS to Identify Activators of Luciferase Translation or Activity in H4 […] Cells. [Related pubchem assays: 1829 (Project Summary), 1814 (Primary HTS)]; assay type: functional
[3] = molecular target: T1, Heat shock factor protein 1; experiment: decrease of HSF1-responsive luciferase luminescence – cell-based, NIH3T3, dose retest, confirmation (AID 2382); assay type: functional;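 further: NIH3T3 fibroblasts with HSF1-driven luciferase reporter stressed by proteasome inhibitor MG132; luminescence from HSF1-driven luciferase expression after 8 hours of MG132 stress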
[4] = molecular target: FAD-linked sulfhydryl oxidase ALR (Homo sapiens, UniProt P55789); experiment: ALR-catalysed DTT oxidation blockers – biochemical, H2O2 detection, luminescence, cherry-pick, dose response (AID 493248)
[5] = viability of uninfected HEp-2 cells – cell-based, HTS, cytotoxicity control for RSV inhibitor project, dose response (AID 2410); assay type: functional; settings: human respiratory syncytial virus
[6] = Luminescence Cell-Based Dose Confirmation HTS to Identify Activators of 5'UTR Stem-Loop Driven Alpha-Synuclein mRNA Translation in H4 Neuroglioblastoma Cells. [Related pubchem assays: 1829 (Project Summary), 1814 (Primary HTS)]; assay type: functional
Cytochrome P450 2C9 = Cytochrome P450 2C9 (Homo sapiens, UniProt P11712)
Cytochrome P450 2D6 = Cytochrome P450 2D6 (Homo sapiens, UniProt P10635);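 further: CYP2D6 member of a cytochrome P450 panel assay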
Cytochrome P450 3A4 = Cytochrome P450 3A4 (Homo sapiens, UniProt P08684);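 further: CYP3A4 tested as one member of a cytochrome P450 panel screen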
[7] = Luminescence Cell-Based Dose Retest to Confirm Inhibitors of Cancer Stem Cells. [Related pubchem assays (depositor defined):AID2717, AID2721]; assay type: functional, Homo sapiens; settings: Homo sapiens
[8] = NIH3T3 cell viability loss – ATP luminescence, mouse fibroblasts, counter-screen, dose response (AID 2010); assay type: functional, cell-based; settings: NIH3T3;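 further: cells exposed to compound for about 90 hours before reading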
[9] = Trypanosoma cruzi growth suppression in host cells – NIH3T3 host cells, beta-gal luminescence, confirmation (AID 2044); assay type: functional, cell-based;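 further: intracellular parasites grown in NIH/3T3 mouse fibroblasts as host cells; luminescent beta-galactosidase reporter signal from transgenic T. cruzi replicating inside host cells; inhibitors lower the luminescence signal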
[10] = Luminescence Cell-Based Dose Response HTS to Identify Inhibitors of 5'UTR Stem-Loop Driven Prion Protein mRNA Translation in H4 Neuroglioblastoma Cells. [Related pubchem assays: 1827 (Project Summary), 1813 (Primary HTS)]; assay type: functional
[11] = alpha-synuclein stem-loop luciferase translation blockers – H4 neuroglioma cells, luminescence, confirmation (AID 1988); assay type: functional, cell-based
[12] = luciferase reporter signal suppression in cells – H4 neuroglioma cells, luminescence, dose response (AID 1990); assay type: functional, cell-based

Chain of FAD-linked sulfhydryl oxidase ALR (P55789 whole entry): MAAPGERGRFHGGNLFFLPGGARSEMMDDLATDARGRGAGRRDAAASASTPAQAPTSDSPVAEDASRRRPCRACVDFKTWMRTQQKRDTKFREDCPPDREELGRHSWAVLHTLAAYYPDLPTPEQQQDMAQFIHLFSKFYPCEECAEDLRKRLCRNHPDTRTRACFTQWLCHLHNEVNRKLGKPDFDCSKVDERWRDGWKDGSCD
Chain of Cytochrome P450 2C9 (P11712 whole entry): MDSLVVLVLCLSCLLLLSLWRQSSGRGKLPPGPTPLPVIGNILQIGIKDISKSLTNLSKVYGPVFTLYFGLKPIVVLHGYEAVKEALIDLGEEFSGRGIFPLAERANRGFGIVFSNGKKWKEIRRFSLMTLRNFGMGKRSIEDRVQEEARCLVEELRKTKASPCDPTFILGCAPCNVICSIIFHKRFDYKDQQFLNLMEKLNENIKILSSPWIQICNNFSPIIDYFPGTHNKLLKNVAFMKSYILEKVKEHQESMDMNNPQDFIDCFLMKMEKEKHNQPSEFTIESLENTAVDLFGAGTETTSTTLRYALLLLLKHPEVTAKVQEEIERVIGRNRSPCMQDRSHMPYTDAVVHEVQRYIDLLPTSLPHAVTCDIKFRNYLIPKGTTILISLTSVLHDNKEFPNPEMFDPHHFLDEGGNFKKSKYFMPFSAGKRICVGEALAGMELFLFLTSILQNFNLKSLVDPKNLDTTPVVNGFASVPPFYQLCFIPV
Chain of Cytochrome P450 3A4 (P08684 whole entry): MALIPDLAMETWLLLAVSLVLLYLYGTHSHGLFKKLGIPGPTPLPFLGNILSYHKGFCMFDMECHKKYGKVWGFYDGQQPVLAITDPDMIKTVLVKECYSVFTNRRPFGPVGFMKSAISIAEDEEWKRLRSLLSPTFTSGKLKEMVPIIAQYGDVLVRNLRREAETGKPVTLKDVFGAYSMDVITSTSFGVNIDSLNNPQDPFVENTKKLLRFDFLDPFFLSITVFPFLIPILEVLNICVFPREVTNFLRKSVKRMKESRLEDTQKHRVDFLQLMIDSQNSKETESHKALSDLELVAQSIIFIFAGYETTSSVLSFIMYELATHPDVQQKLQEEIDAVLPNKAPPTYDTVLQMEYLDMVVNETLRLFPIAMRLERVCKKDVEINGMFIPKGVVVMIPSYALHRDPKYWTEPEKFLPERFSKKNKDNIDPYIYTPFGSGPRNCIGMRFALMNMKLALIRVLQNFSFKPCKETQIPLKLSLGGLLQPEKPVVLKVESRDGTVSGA
Chain of Cytochrome P450 2D6 (P10635 whole entry): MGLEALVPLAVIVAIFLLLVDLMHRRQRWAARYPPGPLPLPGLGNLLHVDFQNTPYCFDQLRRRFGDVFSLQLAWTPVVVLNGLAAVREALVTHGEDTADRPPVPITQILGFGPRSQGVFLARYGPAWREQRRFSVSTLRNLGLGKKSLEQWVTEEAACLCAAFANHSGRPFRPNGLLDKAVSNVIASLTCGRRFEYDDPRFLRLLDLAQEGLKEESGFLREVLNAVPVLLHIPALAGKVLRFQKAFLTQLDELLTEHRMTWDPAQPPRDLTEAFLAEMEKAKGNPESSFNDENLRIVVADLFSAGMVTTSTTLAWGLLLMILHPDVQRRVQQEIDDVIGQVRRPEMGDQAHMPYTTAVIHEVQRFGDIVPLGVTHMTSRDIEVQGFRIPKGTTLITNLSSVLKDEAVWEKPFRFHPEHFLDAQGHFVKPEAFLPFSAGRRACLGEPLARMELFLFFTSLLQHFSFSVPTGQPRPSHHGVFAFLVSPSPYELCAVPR

## CCN(CC(=O)Nc1cccc(OC)c1)CC(=O)Nc1ccc(Br)c(C)c1
[1]
  EC50: 61.1 µM (active)

## O=C(Nc1ccccc1)OCCOc1ccccc1
H4
  EC50: 93.6 µM (active)
[2]
  EC50: 30.2 µM (active)
[3]
  EC50: > 195 µM (not active)

## COc1ccc(Nc2cccc(Cl)c2)c(C(=O)O)c1
[4]
  AC50: 2.02 µM (active)
[5]
  CC50: 25.3 µM (active)

## N#Cc1cc(Cl)c(NCC2CCCO2)cc1C#N (stereo not given)
[1]
  EC50: > 260 µM (inactive)
[5]
  CC50: 20.9 µM (active)

## CCCCn1c(N(CCOC(C)=O)C(C)=O)nc2ccccc21
[3]
  EC50: > 195 µM (not active)

## COc1cc(OC)c2ccc(=O)oc2c1C(CCN1CCCC1)c1ccc(N(C)C)cc1 (stereo not given)
[4]
  AC50: 3.33 µM (active)

## COc1ccc(C)cc1-n1c(SCC(=O)Nc2cccc(C(=O)O)c2)nc2ccccc2c1=O
[1]
  EC50: > 260 µM (inactive)

## CSc1nccn1C(=O)c1ccccc1[N+](=O)[O-]
[3]
  EC50: > 195 µM (not active)

## Cc1ccccc1N(CC(=O)NC1CCCC1)C(=O)c1csnn1
H4
  EC50: > 120 µM (not active)
[6]
  EC50: > 120 µM (not active)
[2]
  EC50: > 120 µM (not active)

## O=c1c2c3c(sc2nc(NCCOCCO)n1Cc1ccco1)CCCCC3
[3]
  EC50: > 195 µM (not active)

## Cc1ccc(C(=O)CSc2cnc3ccccc3n2)cc1C
[3]
  EC50: 4.3 µM (active)

## COc1ccccc1Nc1ccc2nonc2c1[N+](=O)[O-]
[3]
  EC50: > 195 µM (not active)

## Cc1cc(Nc2cccc(Cl)c2)nc(-c2ccccc2O)n1
[3]
  EC50: > 195 µM (not active)

## CC(C)C[C@H]1C(=O)N2CCC[C@@H]2[C@]2(O)O[C@](NC(=O)[C@H]3C=C4c5cccc6[nH]c(Br)c(c56)C[C@H]4N(C)C3)(C(C)C)C(=O)N12
Cytochrome P450 2C9
  AC50: 12.6 µM (inconclusive) and 15.8 µM (inconclusive)

## COn1c(SC(C)C)nc2ccccc2c1=O
Cytochrome P450 2C9
  AC50: 17.8 µM (inconclusive)

## Cc1ccccc1Nc1nnc(C)c(O)n1
[1]
  EC50: > 260 µM (inactive)

## CCCNC(=O)Nc1ccc(C)cc1C
[1]
  EC50: > 260 µM (inactive)

## Nc1ccc(CCc2nc3ccccc3o2)cc1
[4]
  AC50: 1.16 µM (active)

## COc1cc2c(cc1OC)CN(c1ccc([N+](=O)[O-])cc1C#N)CC2
[4]
  AC50: > 100 µM (inactive)

## CCc1ccccc1NS(=O)(=O)c1cc2c3c(c1)CCN3C(=O)CC2
[1]
  EC50: > 260 µM (inactive)

## COc1cc(NC(=O)Nc2cccc(C(C)=O)c2)cc(OC)c1OC
[4]
  AC50: 1.72 µM (active)

## Cc1ccc(N/C([S-])=C(/C(=O)c2ccc(C)c([N+](=O)[O-])c2)[n+]2ccccc2)cc1C
Cytochrome P450 2D6
  AC50: 25.1 µM (inconclusive)
Cytochrome P450 3A4
  AC50: 11.2 µM (inconclusive)
H4
  EC50: 46.6 µM (active)
[6]
  EC50: 2.37 µM (active)
[2]
  EC50: 16.1 µM (active)

## CCOc1ccc(S(=O)(=O)N2CCN=C2c2ccccc2)cc1
[7]
  AC50: 3.19 µM (active)

## O=C(N1CCOCC1)C12CCC3CC(CC(C3)C1)C2
[3]
  EC50: > 195 µM (not active)

## N#Cc1c(NC(=O)CSc2nnc(-c3ccccc3)o2)sc2c1CCCC2
[1]
  EC50: > 260 µM (inactive)

## CCN(CC)CCN1C(=O)C(O)=C(C(=O)c2ccc(OC(C)C)cc2)C1c1cccs1 (stereo not given)
H4
  EC50: 35 µM (active)
[6]
  EC50: 15.7 µM (active)
[2]
  EC50: 20.1 µM (active)

## COc1ccccc1-c1nnc(S)n1Cc1ccccc1
[4]
  AC50: 3.09 µM (active)

## COc1cc(NC(=S)NC(=O)c2c(OC)cccc2OC)ccc1NC(=O)c1cccs1
Cytochrome P450 2C9
  AC50: 1.41 µM (inconclusive)

## N#CCCn1c(=O)c(-c2cc(F)cc(F)c2)nc2cnc(Oc3cccc(Cl)c3)nc21
Cytochrome P450 2C9
  AC50: 7.94 µM (inconclusive)
Cytochrome P450 3A4
  AC50: 10 µM (inconclusive)

## Sc1nnc(Cc2noc3ccccc23)n1-c1ccccc1
[4]
  AC50: 5.61 µM (active)

## O=C(Nc1cnn(C23CC4CC(CC(C4)C2)C3)c1)c1cc(-c2ccccc2)on1
[8]
  EC50: > 60 µM (not active)
[7]
  AC50: 0.296 µM (active)
[9]
  EC50: 1.55 µM (active)

## CCCCN(CCCNc1[nH]cnc2ncnc1-2)c1ccccc1
[4]
  AC50: 0.108 µM (active)

## Cn1c(-c2ccsc2)c(-c2cccs2)c2cc(-c3ccc4[nH]ccc4c3)ccc21
[7]
  AC50: 9.76 µM (active)

## CCOC(=O)C1CCN(C(=O)CCS(=O)(=O)c2ccc3c(c2)CC(C)N3C(=O)CC)CC1 (stereo not given)
[3]
  EC50: > 195 µM (not active)

## Cc1cc2oc(C(=O)Nc3c(C)n(C)n(-c4ccccc4)c3=O)c(C)c2cc1C
H4
  EC50: > 120 µM (not active)
[6]
  EC50: 46.1 µM (active)
[2]
  EC50: > 120 µM (not active)

## COc1ccc(C2C=C(C)Nc3ncnn32)cc1 (stereo not given)
H4
  EC50: > 120 µM (not active)
[6]
  EC50: 19.2 µM (active)
[2]
  EC50: 50.5 µM (active)

## CCCC(NC(=O)COc1cc2c(c3oc(=O)cc(C)c13)CCC(C)(C)O2)C(=O)O (stereo not given)
[3]
  EC50: > 195 µM (not active)

## O=C(Cn1cnc2c(cnn2-c2ccccc2)c1=O)NCc1ccccc1
H4
  EC50: 89.8 µM (active)
[6]
  EC50: 8.08 µM (active)
[2]
  EC50: 9.72 µM (active)

## O=C(CCCc1ccccc1)Nc1ccc2c(c1)OCCO2
[1]
  EC50: 32.2 µM (active)

## CCN(CC)S(=O)(=O)c1cccc(C(=O)OCC(=O)N2CC(=O)Nc3ccccc32)c1
[1]
  EC50: > 260 µM (inactive)

## N#C/C(=C/c1ccc(N2CCCCC2)o1)c1cccc(F)c1
[8]
  EC50: > 60 µM (not active)
H4
  EC50: 16.5 µM (active)
[9]
  EC50: 3.55 µM (active)
[6]
  EC50: 0.141 µM (active)
[2]
  EC50: 0.355 µM (active)

## N#Cc1cccn1-c1nccs1
[3]
  EC50: > 195 µM (not active)

## COc1ccc(CSC2=NCCN2)cc1Cl
[4]
  AC50: 0.021 µM (active)

## COc1cccc(NC(=O)Nc2nnc(Cc3ccccc3F)s2)c1
[3]
  EC50: > 195 µM (not active)

## COc1cc(Cl)c(C)cc1NC(=O)CNC(=O)Cn1cnc2ccccc2c1=O
Cytochrome P450 2C9
  AC50: 10 µM (inconclusive)

## c1ccc(-c2nnsc2Sc2ccccn2)cc1
H4
  EC50: 16.3 µM (active)
[6]
  EC50: 18.3 µM (active)
[2]
  EC50: 11.7 µM (active)

## CC(OC(=O)CN1C(=O)c2ccccc2C1=O)C(=O)NC1CCCCC1C (stereo not given)
[3]
  EC50: > 195 µM (not active)

## [O-][n+]1onc2c1CCc1nnccc1-2
H4
  EC50: > 120 µM (not active)
[6]
  EC50: 11.4 µM (active)
[2]
  EC50: 8.72 µM (active)

## COc1ccc(OC)c(-c2csc(NC(=O)C3=NN(c4ccccc4)C(=O)CC3)n2)c1
H4
  EC50: > 120 µM (not active)
[6]
  EC50: > 120 µM (not active)
[2]
  EC50: > 120 µM (not active)

## CCN1CC(CN(C)Cc2nc(COc3ccccc3)no2)CC1=O (stereo not given)
[1]
  EC50: > 260 µM (inactive)

## COc1ccc(N2CCN(CC(=O)Nc3ccc(C)cc3)CC2)cc1
[4]
  AC50: 3 µM (active)

## CCCCOc1ccc(S(=O)(=O)N2CCN(c3ccc(N4CCN(CC)CC4)nn3)CC2)cc1
[7]
  AC50: < 0.16 µM (active)

## COc1ccc(OC)c(CNc2ccc3c(c2)nc(C)n3C)c1
[4]
  AC50: 5.53 µM (active)

## O=C(Nc1ccc(S(=O)(=O)N2CCCCC2)cc1)C1CCN(C(=O)c2ccco2)CC1
[1]
  EC50: > 260 µM (inactive)

## COc1ccc(SCC2CN(C)CCC2c2ccc(F)cc2)cc1 (stereo not given)
[1]
  EC50: > 260 µM (inactive)

## O=C(O)c1ccc(N/N=C/c2cn(-c3ccccc3)nc2-c2cccs2)cc1
[4]
  AC50: 3.74 µM (active)

## CC(=O)/C(=N/Nc1ccc(Br)cc1)N1CCCc2ccccc21
[10]
  EC50: > 120 µM (not active)
[1]
  EC50: 113 µM (active)
[5]
  CC50: 12.8 µM (active)
[11]
  EC50: 14.5 µM (active)
[12]
  EC50: > 120 µM (not active)

## CCOC(=O)c1cc(CC)sc1NC=C1C(=O)CCCC1=O
[3]
  EC50: > 195 µM (not active)

## C=CCN1/C(=N/C(=O)CC)SC2CS(=O)(=O)CC21 (stereo not given)
Cytochrome P450 2C9
  AC50: 11.2 µM (inconclusive)

## CCOC(=O)c1c(NC(=O)c2ccccc2)sc2c(O)c(CN(CC)CC)ccc12
[3]
  EC50: > 195 µM (not active)
